Test results reported in publication PMC12197210, “mPEG-PCL Nanoparticles to Improve Oral Bioavailability of Acalabrutinib: Effect of Polymer Lipophilicity and Hydrophilicity on Physicochemical Properties and In Vivo Performance in Rats” (Pharmaceutics, 2025).
Converted amounts (≈) assume the structure as drawn. Like-named read-outs stand apart in the source and are kept apart here.

How the values were obtained:
[1] = design: method as in earlier work; details: cited from earlier work
[2] = cited from earlier work
CYP3A enzyme system = test system: CYP3A enzyme system; design: method as in earlier work; details: cited from earlier work
[3] = test system: P-glycoprotein (P-gp) efflux transporter; design: method as in earlier work; details: cited from earlier work
[4] = In vitro dissolution/drug release, USP Type II apparatus, membrane-less method; assay type: physicochemical
Experimental: A membrane-less method using a USP Type II dissolution apparatus (Manual operating model with 8 stations, Electrolab (India) Pvt. Ltd., Mumbai, India) was employed to evaluate the dissolution and drug release behavior of both bulk ACP and freeze-dried ACP-PLHNs (both types, equivalent to 100 mg free base) under physiological pH conditions. The gastrointestinal pH was simulated with three different buffer solutions: a 0.1 N HCl buffer (pH 1.2 ± 0.02, volume = 250 mL) representing the fasted stomach; an acetate buffer (pH 4.5 ± 0.02, volume = 250 mL) representing the fed stomach; and a phosphate buffer solution (PBS, pH 6.8 ± 0.02, volume = 900 mL) representing the intestinal environment. To simulate blood/plasma conditions, 500 mL of PBS (pH 7.2 ± 0.02) was used. To maintain sink conditions, 0.5% w/v sodium dodecyl sulfate (SDS) was added to media with pH ≥ 4.5, and the volume of medium was kept at 3× the volume required to maintain the saturation solubility of ACP. The formulations were dispersed in the dissolution media, which was continuously stirred at 75 rpm and maintained at 37 ± 2 °C. Samples (1000 μL) were withdrawn at specific time intervals and replaced with an equal volume of fresh media (pre-heated to 37 ± 2 °C). The samples were then centrifuged at 15,373× g for 5 min, and the supernatant was collected, diluted with the mobile phase (methanol and a 10 mM ammonium acetate buffer, pH 3.5, in a 52:48 v/v ratio), and analyzed using the HPLC-UV method outlined in Section 2.3.3. The dissolution data were fitted to different mathematical models to determine the drug release kinetics. The best-fitting model was identified based on the regression coefficient.

time to complete dissolution ([4]; pH 1.2, sink conditions): ≤ 30 min | time to complete dissolution ([4]; pH 4.5, sink conditions): ≤ 30 min | time of complete (100%) release/dissolution ([4]; pH 6.8, sink conditions): ≤ 2 h | time of complete (100%) release/dissolution ([4]; pH 7.2, sink conditions): ≤ 4 h
SMILES: CC#CC(=O)N1CCC[C@H]1c1nc(-c2ccc(C(=O)Nc3ccccn3)cc2)c2c(N)nccn12 [ACP, Acalabrutinib]
oral bioavailability [1]: 25 ± 11% | aqueous solubility ([2]; pH 1): 29200 µg/mL (≈ 62700 µM) | aqueous solubility ([2]; pH 4.5): 159 µg/mL (≈ 342 µM) | aqueous solubility ([2]; pH 6.8): 52.3 µg/mL (≈ 112 µM) | solubility ([2]; pH values above 6): practically insoluble | metabolism by CYP3A (CYP3A enzyme system): metabolized by the CYP3A enzyme system | P-gp efflux transporter substrate status [3]: substrate
